From publication PMC12557383, “Development of a Potent and Functional In Vivo Peptide Competitive Inhibitor for the Toxin MazF” (Journal of Medicinal Chemistry, 2025)
Residue numbers refer to the chain shown, from its start. Names may count otherwise. “And” between values parts separate entries of the source, which are not always exact repeats. Equal entries are not always repeated.

B1: MazE (E. coli antitoxin) (natural protein, UniProt P0AE72 1-82, looked up)
chain: MIHSSVKRWGNSPAVRIPATLMQALNLNIDDEVKIDLVDGKLIIEPVRKEPVFTLAELVNDITPENLHENIDWGEPKDKEVW
notes: also called full-length MazE; the antitoxin
B2: Small Antitoxin of MazF (SamF), synthetic peptide Ac-SHLFWAQFDEYF-NH2 (peptide)
peptide: Ac-SHLFWAQFDEYF-NH2
notes: also called synthetic SamF; the synthetic peptide; source: synthetic peptide (microwave-assisted solid phase, RP-HPLC purified)
B3: SamF D9K mutant peptide (peptide)
peptide: Ac-SHLFWAQFKEYF-NH2
notes: the substitution is still to be applied; source: synthetic peptide
B4: MazF_(E24A) (E. coli toxin MazF with glutamic acid 24 replaced with alanine, His6 tag removed) (enzyme)
chain: MVSRYVPDMGDLIWVDFDPTKGSAQAGHRPAVVLSPFMYNNKTGMCLCVPCTTQSKGYPFEVVLSGQERDGVALADQVKSIAWRARGATKKGTVAPEELQLIKAKINVLIG
notes: For NMR the same construct was 15N or 15N/13C labelled; also called the toxin; source: E. coli BL21 (DE3) RIL, purified (Ni-NTA, TEV cleavage, second Ni-NTA, SEC); not shown: His6, N-terminal, cleaved

Legend:
MazFE24A [1] = target: T1, MazFE24A (Escherichia coli, UniProt P0AE70, E24A); test: Isothermal titration calorimetry (ITC), binding to MazFE24A; conditions: peptide into MazFE24A, pH about 7.10, one set of sites model
T1 construct: His6 (N, cleaved yes); made in house; host or cells: E. coli BL21 (DE3) RIL
T1 sequence (P0AE70 1-111 E24A): B4 chain
Method: Experiments were performed in a Malvern VP-ITC microcalorimeter with a reference offset of 15 μcal s^–1, syringe speed of 250 rpm, preinjection delay of 300 s, and a recording interval of 2 s. The thermodynamic parameters of binding were obtained by fitting the experimental thermogram (Origin 7.0 software) to the “one set of sites” model supplied by the equipment after subtracting the heat of dilution. […] Titrations of MazFE24A with SamF were carried out by 20 injections of 15 μL of SamF (225 μM) to a 28 μM MazFE24A solution contained in the calorimetric cell. Samples of MazFE24A and SamF were prepared in the same buffer with a final pH of about 7.10 (30 mM NaHPO4, 4 mM NH4HCO3, 60 mM NaCl, 0.3 mM EDTA, and 2.4 mM DTT).

His^6-MazF = target: T2, His^6-MazF (Escherichia coli, UniProt P0AE70); test: His6-MazF enzyme activity with fluorescence-suppressed chimeric DNA/RNA substrate; type: biochemical
T2 construct: made in house
T2 sequence (P0AE70 1-111): B4 chain with A24E
Method: Toxin activity was assessed with a chimeric DNA/RNA substrate labeled with a fluorophore on the 5′ end and a quencher on the 3′ end (Tables S1–S13) as described. The reaction was performed in 50 mM Tris, pH 7, containing 1 mM EDTA in a 96-well plate and in a final volume of 100 μL. The buffer was initially equilibrated at 35 °C, and His^6-MazF was added to a final concentration of 0.75 μM. Inhibitors were incubated with His^6-MazF for 20 min/35 °C before the reaction was started with 0.5 μM of substrate. Fluorescence intensity was recorded every half minute for 90 min on a SpectraMax Paradigm spectrometer (Molecular Devices) at 35 °C with an excitation wavelength of 488 nm and detection at 520 nm. The fluorescence values of all reactions were subtracted from that of the negative control containing only buffer and substrate. The highest fluorescence value obtained for the reaction catalyzed by His^6-MazF was set to 1, and the fluorescence values obtained for all other reactions were normalized relative to this.
The mechanism of inhibition of the toxin by SamF was determined by measuring the initial enzyme-catalyzed ACA site hydrolysis rates (v 0) in the absence and presence of increasing concentrations of the inhibitor. The concentration of His^6-MazF was 0.75 μM. V 0 was considered as the slope of the catalytic curve (fluorescence increase per time) at the initial moments of the reaction up to a maximum of 5 min, after the addition of the substrate. The Lineweaver–Burk graph was generated by plotting the reciprocal of v 0 as a function of the reciprocal of the substrate concentration in the presence of different amounts of inhibitor.
The IC50 value for the inhibition of MazF was calculated by measuring the v 0 as described above in the presence of different concentrations of the inhibitor. The concentration of His^6-MazF was 0.75 μM, and that of the substrate was 0.5 μM.

[2] = CD spectroscopy, α-helix content by K2D2 deconvolution; type: physicochemical; conditions: 0.25 mg/mL in 10 mM NaHPO4, CD deconvolution with K2D2
Method: CD spectra were recorded in a Jasco 815 spectropolarimeter with a 0.25 mg/mL concentrated sample of SamF in 10 mM NaHPO4 buffer. CD spectra were recorded with 1 nm data pitch, 1 s of integration time, scanning speed of 50 nm/min, and wavelength range from 200 to 260 nm. The final spectrum is the average of eight accumulations. The peptide spectrum was subtracted from that of the buffer and smoothed by the Savitzky-Golay method.

[3] = Solubility of the purified peptide; type: physicochemical
MazFE24A [4] = target: T1, MazFE24A; test: Competition ligand binding by displacement ITC (MazE vs SamF); conditions: 50 μM MazE titrated into 10 μM MazFE24A with 0, 10 or 30 μM SamF
Source text: Raw heats were integrated and fitted by a least-squares algorithm to the “one set of sites” model to calculate thermodynamic parameters after subtracting the heat of dilution.

[5] = target: T3, MazF_(E24A) (E. coli toxin MazF with glutamic acid 24 replaced with alanine, His6 tag removed) (E. coli, UniProt P0AE70 1-111, E24A); test: ITC; in presence of 30 uM SamF
[6] = target: T3, MazF_(E24A) (E. coli toxin MazF with …); test: ITC; in presence of 10 uM SamF
[7] = target: B4; test: ITC; MazE (50 μM) in the syringe, 20 injections of 8 μL into 10 μM MazF_(E24A) in the cell; 50 mM NaHPO4 pH 7, 100 mM NaCl, 0.5 mM EDTA, 4 mM DTT; one set of sites model; conditions: both partners purified
[8] = target: T3, MazF_(E24A) (E. coli toxin MazF with …); test: ITC
[9] = target: T4, His^6-MazF (wild-type E. coli toxin MazF) (E. coli, UniProt P0AE70 1-111); test: cell-based or functional assay
T4 sequence: B4 chain with A24E

[10] = target: B4; test: ITC; SamF (225 μM) in the syringe, 20 injections of 15 μL into 28 μM MazF_(E24A) in the cell; 30 mM NaHPO4, 4 mM NH4HCO3, 60 mM NaCl, 0.3 mM EDTA, 2.4 mM DTT, pH about 7.10; one set of sites model; average of two independent experiments; conditions: both partners purified
[11] = target: B4; conditions: both partners purified
[12] = target: T3, MazF_(E24A) (E. coli toxin MazF with …); test: ITC; remark: listed apart in the source
[13] = target: the molecule itself; test: SEC-MALS; Superdex 75 10/300 GL in NMR buffer; 100 μL of 200 μM MazF_(E24A) alone or with an equimolar concentration of SamF
[14] = SamF: average of two independent experiments

Ac-SHLFWAQFKEYF-NH2 [SamF_D9K]
protein:peptide complex stoichiometry (N) (MazFE24A [1]): 1.0 ±0.1
TΔS (MazFE24A [1]; [14]): -2.8 ± 0.9 kcal/mol
Inhibition of His6-MazF catalysis (result in words) (His^6-MazF; 0.75 μM His6-MazF, 0.5 μM substrate, 50 mM Tris pH 7, 35 °C, 20 min preincubation, fluorescence over 90 min): still able to prevent MazF catalysis

Ac-SHLFWAQFDEYF-NH2 [SamF]
α-helix content ([2]; pH 7.0, 25 °C): 82.6%
α-helix content ([2]; pH 7.6, 25 °C): 39.11%
α-helix content ([2]; pH 8.0, 25 °C): 23.36%
Solubility at neutral pHs (result in words) ([3]; neutral pH): low solubility
Solubility at pHs 8–9 (result in words) ([3]; pH 8–9): highly soluble
TΔS (MazFE24A [1]; [14]): -3.9 kcal/mol and -3.9 ± 1.9 kcal/mol
ΔH (MazFE24A [1]; [14]): -11.8 ± 1.6 kcal/mol
Mechanism of inhibition (Lineweaver–Burk) (His^6-MazF; 0.75 μM His6-MazF, increasing substrate and inhibitor concentrations, Vmax unaffected, KM enhanced): competitive inhibition
Inhibition of His6-MazF in whole E. coli cell lysate (result in words) (His^6-MazF; in the presence of about 0.5 μg of E. coli proteins): still efficiently able to inhibit
Competition with MazE for binding to MazF (result in words) (MazFE24A [4]): compete for binding to MazF

B1
Kd [5]: 2 nM
Kd [6]: 6 nM
dH [7]: -25.6 ± 1.7 kcal/mol
stoichiometry N [7]: 0.5
Kd [8]: 5 nM

B2
IC50 of inhibition of His6-MazF (0.75 μM) cleavage of a fluorescence-suppressed DNA–RNA chimeric substrate (0.5 μM) [9]: 2.17 µM
Kd [10]: 2500 ± 700 nM
dH [10]: -11.8 kcal/mol
stoichiometry N [10]: 1

B3
fold change of KD against SamF [11]: 2 fold
Kd [12]: 6.6 µM

B4
stoichiometry N [13]: 2
